# Patent US20140336182A1, “Aurora Kinase Modulators and Method of Use” (Amgen Inc., priority 2013, published 2014)
# Test system: HeLa cells
# Test: HeLa cell 24 hr ploidy assay (DNA content)
# Type: cell-based
# Conditions: HeLa cells, 4N ploidy, average, read-out: 24h_4NPloidy EC50_IP (uM Avg)
# Description: HeLa cell 24 hr ploidy assay protocol
# The purpose of this assay is to evaluate the ability of selected individual compounds to induce Deoxyribonucleic acid (DNA) content (ploidy) in cells through failed cell division. Cell cycle analysis is a rapid and efficient way to evaluate the status of DNA content (ploidy) of a given cell. HeLa cells (1×10^4 HeLa cells/well) in 100 ul of media (MEM+10% FBS) were plated in 96-well plates (Packard View) and cultured for 24 hrs at 37° C. maintained in a 5% CO2 atmosphere. […] The compounds were serially diluted in DMSO (0.25% final concentration). The cells were fixed (3.7% Formaldehyde and 1% glutaraldehyde) and permeabilized (1×PBS with 1% BSA and 0.2% Triton X-100) in preparation for nuclear staining. The well plates were stained for 45 minutes at RT in the dark using Hoechest 33342 nuclear stain at 0.5 ug.ml (Stock of 10 mg/ml, Invitrogen, CA, Cat #H3570). The nuclear stain was removed by aspiration and the cells were washed with wash buffer. A Cellomics Array Scan Vti plate reader was used to acquire the DNA ploidy data of the cells using Cell Cycle bioapplication. Numbers for each of “valid cell count/well”, “% of 4N cells” and “% of >4Ncells” were calculated with the assistance of an Activity Base 5.1ca software and dose curves were generated using an XLFit software. With XLFit, final EC50 IP and EC50 transit values, as well as the Max and Min, were calculated for each curve.
row,EC50 [µM],SMILES
1,0.021,c1ccc(-c2nnc(Nc3ccc(Sc4ccnc5cccnc45)cc3)c3ccccc23)cc1 [compound 309]

# Same assay, conditions: Homo sapiens, HeLa, 4N ploidy, average, read-out: 24h_4NPloidy EC50_IP (uM Avg)
row,EC50 [µM],SMILES
1,0.025,N#Cc1ccc2c(Oc3ccc(Nc4nnc(-c5cccc(O)c5)c5ccccc45)cc3)ccnc2c1 [compound 93]
2,0.023,COc1cnc2c(Oc3ccc(Nc4nnc(-c5cccc(OC)n5)c5ccccc45)cc3)ccnc2c1 [compound 99]
3,0.485,COc1cnc2c(Oc3cnc(Nc4nnc(-c5ccccc5)c5ccccc45)nc3)ccnc2c1 [compound 84]
4,> 1.2,"COc1ccc(F)cc1-c1nnc(Nc2ccc(Oc3ccnc4cc(C(N)=O)ccc34)cc2)c2ccccc12 [Example 47, 4-(4-(4-(5-fluoro-2-methoxyphenyl)phthalazin-1-ylamino)phenoxy)quinoline-7-carb oxamide]"
5,0.02,COc1ccc2c(Oc3ccc(Nc4nnc(-c5cccc(OC)n5)c5ccccc45)cc3)ccnc2c1 [compound 100]
6,0.025,"COc1ccc(-c2nnc(Nc3ccc(Oc4ccnc5cc(C#N)ccc45)cc3)c3ccccc23)cc1 [compound 141, 4-((4-((4-(4-(methyloxy)phenyl)-1-phthalazinyl)amino)phenyl)oxy)-7-quinolinecarbonitrile]"
7,0.009,COc1cnc2c(Oc3ccc(Nc4nnc(-c5cc(C)cs5)c5ccccc45)cc3)ccnc2c1 [compound 152]
8,0.181,COc1cncc(-c2nnc(Nc3ccc(Oc4ccnc5cc(OC)cnc45)cc3)c3ccccc23)c1 [compound 129]
9,0.349,"CCc1cc(-c2ccccc2)nnc1Nc1ccc(Oc2ccnc3cc(OC)cnc23)nc1 [compound 83, 4-ethyl-N-(6-((7-(methyloxy)-1,5-naphthyridin-4-yl)oxy)-3-pyridinyl)-6-phenyl-3-pyridazinamine]"
10,0.052,"COc1cnc2c(Oc3ccc(Nc4nnc(-c5ccccc5)c5ccccc45)cc3F)ccnc2c1 [compound 89, N-(3-fluoro-4-((7-(methyloxy)-1,5-naphthyridin-4-yl)oxy)phenyl)-4-phenyl-1-phthalazinamine]"
11,0.01,Cc1ccc(-c2nnc(Nc3ccc(Oc4ccnc5ccccc45)c(F)c3)c3ccccc23)cc1 [compound 161]

# Same assay, conditions: Homo sapiens, HeLa, HeLa cells, 4N ploidy, average, read-out: 24h_4NPloidy EC50_IP (uM Avg)
row,SMILES,EC50 [µM]
1,c1ccc2c(-c3ccc4c(c3)CCO4)nnc(Nc3ccc(Oc4ccnc5ccsc45)cc3)c2c1 [compound 272],0.006
2,COc1cnc2c(Oc3ccc(Nc4nnc(-c5sccc5C)c5ccccc45)cc3)ccnc2c1 [compound 185],0.241
3,COc1cnc2c(Oc3ccc(Nc4nnc(-c5ccc([S+](C)[O-])cc5)c5ccccc45)cc3)ccnc2c1 (centres unmarked) [compound 262],> 1.2
4,"COc1cnc2c(Sc3ccc(Nc4nnc(OCCC5CCCCN5)c5ccccc45)cc3)ccnc2c1 (centres unmarked) [Example 403, N-(4-(7-Methoxy-1,5-naphthyridin-4-ylthio)phenyl)-4-(2-(piperidin-2-yl)ethoxy)phthalazin-1-amine]",0.037
5,"N#Cc1ccc2c(Sc3ccc(Nc4nnc(-c5ccc(Cl)cc5)c5ccccc45)cc3)ccnc2c1 [compound 248, 4-((4-((4-(4-chlorophenyl)-1-phthalazinyl)amino)phenyl)thio)-7-quinolinecarbonitrile]",0.022
6,COc1cnc2c(Oc3ccc(Nc4nnc(-c5ccccc5)c(C)c4C)cc3)ccnc2c1 [compound 281],0.378
7,O=C(c1cc2nccc(Oc3ccc(Nc4nnc(-c5ccc(Cl)cc5)c5ccccc45)cc3)c2s1)N1CCOCC1 [compound 259],0.051
8,"COc1cnc2c(N(C)c3ccc(Nc4nnc(-c5ccccc5)c5ccccc45)cc3)ccnc2c1 [compound 51, N-methyl-N-(7-(methyloxy)-1,5-naphthyridin-4-yl)-N′-(4-phenyl-1-phthalazinyl)-1,4-benzenediamine]",0.372
9,"COc1cnc2c(Oc3ccc(Nc4nnc(-c5ccc(F)c(C)c5)c5ccccc45)cc3)ccnc2c1 [compound 246, 4-(4-fluoro-3-methylphenyl)-N-(4-((7-(methyloxy)-1,5-naphthyridin-4-yl)oxy)phenyl)-1-phthalazinamine]",0.03
10,COc1cccc(-c2nnc(Nc3ccc(Sc4ccnc5ccccc45)cc3)c3ccccc23)n1 [compound 327],0.017
11,COc1cnc2c(Oc3ccc(Nc4nnc(-c5ccc6[nH]ccc6c5)c5ccccc45)cc3)ccnc2c1 [compound 167],0.027
12,CCc1cc(-c2ccc(C)cc2)nnc1Nc1ccc(Oc2ccnc3cc(OC)cnc23)cc1 [compound 199],0.018
13,"COc1cnc2c(Oc3ccc(Nc4nnc(-c5ccc(C(F)(F)F)c(Cl)c5)c5ccccc45)cc3)ccnc2c1 [compound 172, 4-(3-chloro-4-(trifluoromethyl)phenyl)-N-(4-((7-(methyloxy)-1,5-naphthyridin-4-yl)oxy)phenyl)-1-phthalazinamine]",0.034
14,c1ccc(-c2nnc(Nc3ccc(Oc4ncnc5nc[nH]c45)cc3)c3ccccc23)cc1 [compound 257],> 1.2
15,COc1cnc2c(Sc3ccc(Nc4nnc(-c5ccc(Cl)cc5)c5ccccc45)cc3)ccnc2c1 [compound 232],0.004
16,C#Cc1ccc(-c2nnc(Nc3ccc(Oc4ccnc5cc(OC)cnc45)cc3)c3ccccc23)cc1 [compound 287],0.06
17,"COc1cc2nccc(Sc3ccc(Nc4nnc(-c5ccc(Cl)cc5)c5ccccc45)cc3)c2[nH]c1=O [Example 406, 8-(4-(4-(4-Chlorophenyl)phthalazin-1-ylamino)phenylthio)-3-methoxy-1,5-naphthyridin-2(1H)-one]",< 0.0023
18,COc1cnc2c(Oc3ccc(Nc4nnc(-c5cnn(C)c5)c5ccccc45)cc3)ccnc2c1 [compound 216],0.074
19,COc1cnc2c(Oc3ccc(Nc4nnc(-c5cc(Cl)cs5)c5ccccc45)cc3)ccnc2c1 [compound 316],0.027

# Second part, the compound after the results:
row,EC50 [µM],SMILES
1,0.006,COc1cnc2c(Sc3ccc(Nc4nnc(-c5ccc6cn(C)nc6c5)c5ccccc45)cc3)ccnc2c1 [compound 502]
2,0.021,COc1ccc2c(Sc3ccc(Nc4nnc(-c5ccccc5)c5ccccc45)cc3)ccnc2c1 [compound 331]
3,0.005,COc1cnc2c(Sc3ccc(Nc4nnc(N5CCN6CC(F)(F)C[C@H]6C5)c5ccccc45)cc3)ccnc2c1 [compound 601]
4,0.043,c1ccc(-c2nnc(Nc3ccc(Sc4ccnc5cc[nH]c45)cc3)c3ccccc23)cc1 [compound 462]
5,0.022,CCOc1nc(-c2nnc(Nc3ccc(Sc4ccnc5cc(OC)cnc45)cc3)c3ccccc23)cs1 [compound 505]
6,0.413,CNC(=O)c1cc(Sc2ccc(Nc3nnc(-c4ccc(Cl)cc4)c4ccccc34)cc2)ccn1 [compound 360]
7,0.005,COc1cnc2c(Sc3ccc(Nc4nnc(-c5ccc(OC)nc5)c5ccccc45)cc3)ccnc2c1 [compound 583]
8,0.008,Clc1ccc(-c2nnc(Nc3ccc(Sc4ccnc5ccncc45)cc3)c3ccccc23)cc1 [compound 426]
9,0.241,Cc1cccc(-c2nnc(Nc3ccc(Sc4ccnc5ccoc45)cc3)c3ccccc23)n1 [compound 488]
10,> 1.2,Clc1ccc(-c2nnc(Nc3ccc(CN4CCOc5ccccc54)cc3)c3ccccc23)cc1 [compound 349]
11,0.025,COc1cnc2c(Sc3ccc(Nc4nnc(-c5cccc(Cl)c5)c5ccccc45)cc3)ccnc2c1 [compound 516]
12,0.382,"COc1cnc2c(Oc3ccc(Nc4nncc5ccccc45)cc3)ccnc2c1 [compound 542, N-(4-((7-methoxy-1,5-naphthyridin-4-yl)oxy)phenyl)-1-phthalazinamine]"
13,0.004,COc1cc(OC)c2c(Oc3ccc(Nc4nnc(-c5ccc(Cl)cc5)c5ccccc45)cc3)ncnc2c1 [compound 590]
14,0.036,COc1cc(OC)c2c(Sc3ccc(Nc4nnc(-c5ccccc5)c5ccccc45)cc3)ncnc2c1 [compound 581]
15,0.03,COc1ccc2ncnc(Oc3ccc(Nc4nnc(-c5cc(C)cs5)c5ccccc45)cc3)c2c1 [compound 565]
16,0.14,COCCOCCn1c(=O)ccc2nccc(Sc3ccc(Nc4nnc(-c5ccc(Cl)cc5)c5ccccc45)cc3)c21 [compound 476]
17,0.009,COc1cnc2c(Sc3ccc(Nc4nnc(-c5ccccc5)c5ccccc45)cc3F)ccnc2c1 [compound 519]
18,0.001,COc1cnc2c(Sc3ccc(Nc4nnc(-c5ccc6c(c5)OCO6)c5ccccc45)cc3)ccnc2c1 [compound 530]
19,0.051,Cc1cccc(-c2nnc(Nc3ccc(Sc4ccnc5cccnc45)cc3)c3ccccc23)n1 [compound 421]
20,0.007,COc1cnc2c(Sc3ccc(Nc4nnc(N5CCc6sccc6C5)c5ccccc45)cc3)ccnc2c1 [compound 578]
21,0.005,COc1ccc2c(Sc3ccc(Nc4nnc(-c5ccc(Cl)cn5)c5ccccc45)cc3)ccnc2c1 [compound 364]
22,0.008,Fc1ccc2c(Oc3ccc(Nc4nnc(-c5ccc(Cl)cc5)c5ccccc45)cc3)ccnc2c1 [compound 455]
23,0.105,c1ccc(-c2nnc(Nc3ccc(Sc4ccnc5[nH]cnc45)cc3)c3ccccc23)cc1 [compound 362]
24,0.031,COc1cnc2c(Sc3ccc(Nc4nnc(Cl)c5ccccc45)cc3)ccnc2c1 [compound 536]
25,0.112,Cc1csc(-c2nnc(Nc3ccc(Oc4ccnc5ccc(OC(F)(F)F)cc45)cc3)c3ccccc23)c1 [compound 575]
